Results taken from PMC7031696 (Cell chemical biology, 2019).
“Also recorded” adds a separate entry of the source. Where two headings read alike, the source gives them in different places.

Key:
[1] = system: Plasmodium falciparum 3D7-A10 parasites; assay: Stage specificity assay (8-h exposure of synchronized stages, IC50^8h); format: cell-based; details: for IC50: Plasmodium falciparum
[2] = system: 3D7-MR4 trophozoite parasite-infected RBCs; assay: Metabolomic profiling (hydrophilic metabolite changes, UHPLC-MS); format: cell-based, Plasmodium falciparum
[3] = system: asynchronous 3D7-A10 parasite cultures; assay: Standard 72-h exposure asexual blood stage susceptibility assay (IC50^72h); format: cell-based, Plasmodium falciparum; details: Plasmodium falciparum, 3D7, 72 h, read-out: Overall (72hr assay) Mean IC50 (IC50^72h)

CCCCN(CCCC)CC(O)c1cc(Cl)cc2c1-c1ccc(Cl)cc1/C2=C/c1ccc(Cl)cc1 (centres unmarked) [Lumefantrine, reference compound]
Ratio lowest IC50 8hr/IC50 72hr ([1]; 3D7-A10): 11.6
IC50 ([1]; 3D7, read-out: Early rings Mean IC50 (IC50^8h), 8-h exposure 0–8 hr, 3D7-A10, survival at 60 h): 15.4 nM
IC50 ([1]; 3D7, read-out: Early trophozoites Mean IC50 (IC50^8h), 8-h exposure 16–24 hr, 3D7-A10, survival at 60 h): 19.5 nM
IC50 ([1]; 3D7, read-out: IC50^8h values, text summary of Table S1): < 300 nM
IC50 ([1]; 3D7, read-out: Late rings Mean IC50 (IC50^8h), 8-h exposure 8–16 hr, 3D7-A10, survival at 60 h): 15.8 nM
IC50 ([1]; 3D7, read-out: Late trophozoites Mean IC50 (IC50^8h), 8-h exposure 24–32 hr, 3D7-A10, survival at 60 h): 22.3 nM
IC50 ([1]; 3D7, read-out: Schizonts Mean IC50 (IC50^8h), 8-h exposure 32–40 hr, 3D7-A10, survival at 60 h): 81 nM
Stage of peak activity (Figure 6) ([1]; period when the parasite was most susceptible (lowest IC50^8h)): ring and trophozoite stages; also recorded: both rings and trophozoites
peptide levels (hemoglobin catabolism signature) ([2]; 10 × IC50^72h, 2.5 hr, trophozoites): minor peptide increases
Log2(fold changes) 3-phosphoglycerate ([2]; metabolite 3-phosphoglycerate, log2 fold change): 0.2561
Log2(fold changes) 4-Pyridoxic acid ([2]; metabolite 4-Pyridoxic acid, log2 fold change): 0.0070
Log2(fold changes) 4-aminobutyrate ([2]; metabolite 4-aminobutyrate, log2 fold change): -0.1610
Log2(fold changes) 4-phosphopantetheine ([2]; metabolite 4-phosphopantetheine, log2 fold change): 0.0000
Log2(fold changes) 4-phosphopantothenate ([2]; metabolite 4-phosphopantothenate, log2 fold change): 0.0324
Log2(fold changes) 5-aminopentanoic acid ([2]; metabolite 5-aminopentanoic acid, log2 fold change): 0.0000
Log2(fold changes) 5-methyl-THF ([2]; metabolite 5-methyl-THF, log2 fold change): 0.0000
Log2(fold changes) 5-phosphoribosyl-1-pyrophosphate ([2]; metabolite 5-phosphoribosyl-1-pyrophosphate, log2 fold change): 0.0000
Log2(fold changes) 6-phospho-D-gluconate ([2]; metabolite 6-phospho-D-gluconate, log2 fold change): -0.0221
Log2(fold change) HVDD ([2]; metabolite HVDD): 0.0000
Log2(fold change) Hydroxyisocaproic acid ([2]; metabolite Hydroxyisocaproic acid): 0.0000
Log2(fold change) IDP ([2]; metabolite IDP): 0.0726
Log2(fold change) IMP ([2]; metabolite IMP): 0.0056
Log2(fold change) Inositol ([2]; metabolite Inositol): 0.0000
Log2(fold change) Isopentyl-PP ([2]; metabolite Isopentyl-PP): 0.0000
Log2(fold change) L-arginino-succinate ([2]; metabolite L-arginino-succinate): -0.9519
Log2(fold change) LD ([2]; metabolite LD): -0.1057
Log2(fold change) Myristoyl/tetradecanoyl-CoA ([2]; metabolite Myristoyl/tetradecanoyl-CoA): 0.0333
Log2(fold change) N-Acetyl-L-alanine ([2]; metabolite N-Acetyl-L-alanine): -0.2647
Log2(fold change) N-acetyl-L-ornithine ([2]; metabolite N-acetyl-L-ornithine): -0.6357
Log2(fold change) N-acetyl-glucosamine-1/6-phosphate ([2]; metabolite N-acetyl-glucosamine-1/6-phosphate): 0.0000
Log2(fold change) N-acetyl-glutamate ([2]; metabolite N-acetyl-glutamate): -0.0437
Log2(fold change) N-acetyl-glutamine ([2]; metabolite N-acetyl-glutamine): 0.0000
Log2(fold change) N-carbamoyl-L-aspartate ([2]; metabolite N-carbamoyl-L-aspartate): -0.1460
Log2(fold change) NAD+ ([2]; metabolite NAD+): -0.0402
Log2(fold change) NADH ([2]; metabolite NADH): 0.0000
Log2(fold change) NADP+ ([2]; metabolite NADP+): -0.0151
Log2(fold change) NADPH ([2]; metabolite NADPH): -0.2368
Log2(fold change) O-acetyl-L-serine ([2]; metabolite O-acetyl-L-serine): 0.0000
Log2(fold change) Octoluse 8/1P ([2]; metabolite Octoluse 8/1P): -0.0627
Log2(fold change) Octoluse Bisphosphate ([2]; metabolite Octoluse Bisphosphate): -0.2224
Log2(fold change) PD ([2]; metabolite PD): -0.6715
Log2(fold change) PE ([2]; metabolite PE): -0.8261
Log2(fold change) PEE ([2]; metabolite PEE): -0.8026
Log2(fold change) PEEK ([2]; metabolite PEEK): -1.0553
Log2(fold change) PVNF ([2]; metabolite PVNF): -1.0323
Log2(fold change) Pyroglutamic acid ([2]; metabolite Pyroglutamic acid): -0.2992
Log2(fold change) Pyrophosphate ([2]; metabolite Pyrophosphate): 0.0000
Log2(fold change) Ribose-5-phosphate ([2]; metabolite Ribose-5-phosphate): -0.3541
Log2(fold change) S-adenosyl-L-homocysteine ([2]; metabolite S-adenosyl-L-homocysteine): -0.4489
Log2(fold change) S-adenosyl-L-methioninamine ([2]; metabolite S-adenosyl-L-methioninamine): 0.0000
Log2(fold change) S-adenosyl-L-methionine ([2]; metabolite S-adenosyl-L-methionine): 0.0000
Log2(fold change) S-methyl-5'-thioadenosine ([2]; metabolite S-methyl-5'-thioadenosine): 0.0780
Log2(fold change) SD ([2]; metabolite SD): -0.5378
Log2(fold change) SDL ([2]; metabolite SDL): -0.2618
Log2(fold change) SID ([2]; metabolite SID): -0.7176
Log2(fold change) Sedoheptulose bisphosphate ([2]; metabolite Sedoheptulose bisphosphate): -0.0691
Log2(fold change) Thiamine pyrophosphate ([2]; metabolite Thiamine pyrophosphate): 0.0528
Log2(fold changes) UDP-D-glucose ([2]; metabolite UDP-D-glucose, log2 fold change): 0.0221
Log2(fold changes) UDP-D-glucuronate ([2]; metabolite UDP-D-glucuronate, log2 fold change): 0.0757
Log2(fold changes) UDP-N-acetyl-glucosamine ([2]; metabolite UDP-N-acetyl-glucosamine, log2 fold change): -0.0029
Log2(fold changes) UDP ([2]; metabolite UDP, log2 fold change): 0.0413
Log2(fold changes) UMP ([2]; metabolite UMP, log2 fold change): 0.0984
Log2(fold changes) UTP ([2]; metabolite UTP, log2 fold change): 0.0275
Log2(fold change) hydroxyphenylpyruvate ([2]; metabolite hydroxyphenylpyruvate): 0.0000
Log2(fold change) hydroxyproline/Aminolevulinate ([2]; metabolite hydroxyproline/Aminolevulinate): -0.1667
Log2(fold change) hypoxanthine ([2]; metabolite hypoxanthine): 0.0000
Log2(fold change) indole ([2]; metabolite indole): 0.0000
Log2(fold change) inosine ([2]; metabolite inosine): -0.7307
Log2(fold change) isoleucine ([2]; metabolite isoleucine): -0.3373
Log2(fold change) lactate ([2]; metabolite lactate): -0.7427
Log2(fold change) leucine ([2]; metabolite leucine): -0.5467
Log2(fold change) lysine ([2]; metabolite lysine): -0.9287
Log2(fold change) malate ([2]; metabolite malate): -0.2859
Log2(fold change) maleic acid ([2]; metabolite maleic acid): -0.2558
Log2(fold change) methionine ([2]; metabolite methionine): -0.5836
Log2(fold change) myo-inositol ([2]; metabolite myo-inositol): -1.2017
Log2(fold change) nicotinamide mononucleotide ([2]; metabolite nicotinamide mononucleotide): -0.1717
Log2(fold change) nicotinate ([2]; metabolite nicotinate): -0.0538
Log2(fold change) ornithine ([2]; metabolite ornithine): 0.0000
Log2(fold change) orotate ([2]; metabolite orotate): -0.5668
Log2(fold change) orotidine-5'-phosphate ([2]; metabolite orotidine-5'-phosphate): -1.0458
Log2(fold change) oxaloacetate ([2]; metabolite oxaloacetate): 0.0000
Log2(fold change) p-aminobenzoate ([2]; metabolite p-aminobenzoate): 0.0000
Log2(fold change) p-hydroxybenzoate ([2]; metabolite p-hydroxybenzoate): 0.0000
Log2(fold change) pantothenate ([2]; metabolite pantothenate): 0.0000
Log2(fold change) phenylalanine ([2]; metabolite phenylalanine): -0.5609
Log2(fold change) phenylpyruvate ([2]; metabolite phenylpyruvate): 0.0000
Log2(fold change) phosphoenolpyruvate ([2]; metabolite phosphoenolpyruvate): 0.3731
Log2(fold change) prephenate ([2]; metabolite prephenate): 0.0000
Log2(fold change) proline ([2]; metabolite proline): -0.4274
Log2(fold change) pyridoxine ([2]; metabolite pyridoxine): -0.6579
Log2(fold change) pyruvate ([2]; metabolite pyruvate): -0.6264
Log2(fold change) riboflavin ([2]; metabolite riboflavin): -0.1882
Log2(fold change) ribose ([2]; metabolite ribose): -0.6495
Log2(fold change) ribose-phosphate ([2]; metabolite ribose-phosphate): -0.3829
Log2(fold change) ribulose-5-phosphate ([2]; metabolite ribulose-5-phosphate): -0.2140
Log2(fold change) serine ([2]; metabolite serine): -0.3504
Log2(fold change) sn-glycerol-3-phosphate ([2]; metabolite sn-glycerol-3-phosphate): 0.0117
Log2(fold change) succinate/Methylmalonic acid ([2]; metabolite succinate/Methylmalonic acid): 0.0257
Log2(fold change) succinyl-CoA/methylmalonyl-CoA ([2]; metabolite succinyl-CoA/methylmalonyl-CoA): 0.0000
Log2(fold change) taurine ([2]; metabolite taurine): -0.1171
Log2(fold change) thiamine ([2]; metabolite thiamine): -0.2236
Log2(fold change) threonine/homoserine ([2]; metabolite threonine/homoserine): -0.3606
Log2(fold change) thymidine ([2]; metabolite thymidine): 0.0000
Log2(fold changes) thymine ([2]; metabolite thymine, log2 fold change): 0.0000
Log2(fold changes) trehalose-6-Phosphate ([2]; metabolite trehalose-6-Phosphate, log2 fold change): 0.0000
Log2(fold changes) tryptophan ([2]; metabolite tryptophan, log2 fold change): -0.3412
Log2(fold changes) tyrosine ([2]; metabolite tyrosine, log2 fold change): -0.2808
Log2(fold changes) uridine ([2]; metabolite uridine, log2 fold change): 0.0000
IC50 [3]: 1.3 nM
